Experimental data published in PubChem BioAssay (NCI).
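A five-concentration, 48-hour dose response in 96-well plates underlies each endpoint, interpolated linearly between surrounding concentrations. Definition used: TGI = concentration required for complete inhibition of growth.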

How the values were obtained:
Test in all cases: inhibition of tumour cell growth, NCI panel, 48 h
[1] = system: A549 NSCLC
[2] = system: NCI-H226 lung
[3] = system: HOP-92 NSCLC
[4] = system: ACHN renal
[5] = system: HT29 colon
[6] = system: MOLT-4 leukemia
[7] = system: SF-295 CNS
[8] = system: MDA-MB-435
[9] = system: T-47D breast
[10] = system: HS 578T breast
[11] = system: M14 melanoma
[12] = system: OVCAR-5 ovarian
[13] = system: TK-10 renal
[14] = system: U251 CNS
[15] = system: MDA-MB-231 breast
[16] = system: NCI-H460 lung
[17] = system: UACC-62 melanoma
[18] = system: SN12C renal
[19] = system: HOP-62 NSCLC
[20] = system: HCT-15 colon
[21] = system: OVCAR-8 ovarian
[22] = system: NCI-H522 lung
[23] = system: OVCAR-3 ovarian
[24] = system: SW-620 colon
[25] = system: SF-539 CNS
[26] = system: A498 renal
[27] = system: SK-MEL-2 melanoma
[28] = system: PC-3 prostate
[29] = system: K-562 leukemia
[30] = system: HCC-2998 colon
[31] = system: DU-145 prostate
[32] = system: CAKI-1 renal
[33] = system: MDA-N
[34] = system: IGROV1 ovarian
[35] = system: EKVX NSCLC
[36] = system: MCF7 breast
[37] = system: LOX IMVI melanoma
[38] = system: SK-MEL-5 melanoma
[39] = system: UACC-257 melanoma
[40] = system: SR leukemia
[41] = system: HL-60(TB) leukemia
[42] = system: SK-OV-3 ovarian
[43] = system: NCI/ADR-RES ovarian
[44] = system: 786-0 renal
[45] = system: RPMI-8226 leukemia
[46] = system: BT-549 breast
[47] = system: RXF 393 renal
[48] = system: COLO 205 colon
[49] = system: HCT-116 colon
[50] = system: NCI-H23 lung
[51] = system: UO-31 renal
[52] = system: SK-MEL-28 melanoma
[53] = system: MALME-3M melanoma
[54] = system: CCRF-CEM leukemia
[55] = system: OVCAR-4 ovarian
[56] = system: SF-268 CNS
[57] = system: SNB-19 CNS
[58] = system: KM12 colon

Measured: TGI

C1CSC(Sc2nc(SC3=NCCS3)nc(SC3=NCCS3)n2)=N1
> 100 µM: all assays above

CC(=O)NCCC1CNc2ccccc21 (centres undefined)
not listed: [19] | [44]
> 100 µM: all other assays above
